Tests used:
Type in all cases: functional
Staphylococcus aureus [1] = test: Antimicrobial activity against Staphylococcus aureus MLS16 MTCC2940 measured after 24 hrs by well-diffusion method; details: MLS16 MTCC2940, 24 h
Bacillus subtilis [2] = test: Bactericidal activity against Bacillus subtilis MTCC121 measured after 24 hrs; details: MTCC121, 24 h
Candida albicans [3] = test: Antimicrobial activity against Candida albicans MTCC4748 measured after 24 hrs by well-diffusion method; details: MTCC4748, 24 h
Bacillus subtilis [4] = test: Antimicrobial activity against Bacillus subtilis MTCC121 measured after 24 hrs by well-diffusion method; details: MTCC121, 24 h
Micrococcus luteus [5] = test: Antimicrobial activity against Micrococcus luteus MTCC2470 measured after 24 hrs by well-diffusion method; details: MTCC2470, 24 h
Micrococcus luteus [6] = test: Bactericidal activity against Micrococcus luteus MTCC2470 measured after 24 hrs; details: MTCC2470, 24 h
Candida albicans [7] = test: Antimicrobial activity against Candida albicans MTCC3018 measured after 24 hrs by well-diffusion method; details: MTCC3018, 24 h
Candida albicans [8] = test: Antimicrobial activity against Candida albicans MTCC3017 measured after 24 hrs by well-diffusion method; details: MTCC3017, 24 h
Candida albicans [9] = test: Antimicrobial activity against Candida albicans MTCC227 measured after 24 hrs by well-diffusion method; details: MTCC227, 24 h
Staphylococcus aureus [10] = test: Antimicrobial activity against Staphylococcus aureus MTCC96 measured after 24 hrs by well-diffusion method; details: MTCC96, 24 h
Staphylococcus aureus [11] = test: Bactericidal activity against Staphylococcus aureus MLS16 MTCC2940 measured after 24 hrs; details: MLS16 MTCC2940, 24 h
Candida albicans [12] = test: Antimicrobial activity against Candida albicans MTCC183 measured after 24 hrs by well-diffusion method; details: MTCC183, 24 h
Pseudomonas aeruginosa = test: Antimicrobial activity against Pseudomonas aeruginosa MTCCM2453 measured after 24 hrs by well-diffusion method; details: MTCCM2453, 24 h
Candida albicans [13] = test: Antimicrobial activity against Candida albicans MTCC1637 measured after 24 hrs by well-diffusion method; details: MTCC1637, 24 h
Raoultella planticola = test: Antimicrobial activity against Klebsiella planticola MTCC530 measured after 24 hrs by well-diffusion method; details: MTCC530, 24 h
Candida albicans [14] = test: Antimicrobial activity against Candida albicans MTCC3958 measured after 24 hrs by well-diffusion method; details: MTCC3958, 24 h
Escherichia coli = test: Antimicrobial activity against Escherichia coli MTCC739 measured after 24 hrs by well-diffusion method; details: MTCC739, 24 h
Staphylococcus aureus [15] = test: Bactericidal activity against Staphylococcus aureus MTCC96 measured after 24 hrs; details: MTCC96, 24 h
Candida albicans [16] = test: Antimicrobial activity against Candida albicans MTCC854 measured after 24 hrs by well-diffusion method; details: MTCC854, 24 h
Candida albicans [17] = test: Antimicrobial activity against Candida albicans MTCC7315 measured after 24 hrs by well-diffusion method; details: MTCC7315, 24 h

CCCCCCC(C/C=C\CCCCCCCC(=O)OC)NC(=O)[C@@H]1CCCN1 (some centres undefined)
> 125 µg/mL: MIC (Pseudomonas aeruginosa) | MIC (Raoultella planticola) | MIC (Escherichia coli)
15.6 µg/mL: MIC (Bacillus subtilis [4]) | MIC (Micrococcus luteus [5]) | MIC (Staphylococcus aureus [10])
31.2 µg/mL: MIC (Staphylococcus aureus [1]) | MBC (Bacillus subtilis [2]) | MIC (Candida albicans [3]) | MBC (Micrococcus luteus [6]) | MIC (Candida albicans [7]) | MIC (Candida albicans [8]) | MIC (Candida albicans [9]) | MBC (Staphylococcus aureus [11]) | MIC (Candida albicans [12]) | MIC (Candida albicans [13]) | MIC (Candida albicans [14]) | MBC (Staphylococcus aureus [15]) | MIC (Candida albicans [16]) | MIC (Candida albicans [17])

CCCCCCC(C/C=C\CCCCCCCC(=O)OC)NC(=O)[C@@H](N)CC(C)C (some centres undefined)
> 125 µg/mL: MIC (Staphylococcus aureus [1]) | MIC (Candida albicans [3]) | MIC (Bacillus subtilis [4]) | MIC (Micrococcus luteus [5]) | MIC (Candida albicans [7]) | MIC (Candida albicans [8]) | MIC (Candida albicans [9]) | MIC (Staphylococcus aureus [10]) | MIC (Candida albicans [12]) | MIC (Pseudomonas aeruginosa) | MIC (Candida albicans [13]) | MIC (Raoultella planticola) | MIC (Candida albicans [14]) | MIC (Escherichia coli) | MIC (Candida albicans [16]) | MIC (Candida albicans [17])

CCCCCCC(C/C=C\CCCCCCCC(=O)OC)NC(=O)[C@@H](N)Cc1ccccc1 (some centres undefined)
> 125 µg/mL: MIC (Staphylococcus aureus [1]) | MIC (Candida albicans [3]) | MIC (Bacillus subtilis [4]) | MIC (Micrococcus luteus [5]) | MIC (Candida albicans [7]) | MIC (Candida albicans [8]) | MIC (Candida albicans [9]) | MIC (Staphylococcus aureus [10]) | MIC (Candida albicans [12]) | MIC (Pseudomonas aeruginosa) | MIC (Candida albicans [13]) | MIC (Raoultella planticola) | MIC (Candida albicans [14]) | MIC (Escherichia coli) | MIC (Candida albicans [16]) | MIC (Candida albicans [17])

CCCCCCC(C/C=C\CCCCCCCC(=O)OC)NC(=O)[C@@H](N)Cc1c[nH]c2ccccc12 (some centres undefined)
> 125 µg/mL: MIC (Staphylococcus aureus [1]) | MIC (Candida albicans [3]) | MIC (Bacillus subtilis [4]) | MIC (Micrococcus luteus [5]) | MIC (Candida albicans [7]) | MIC (Candida albicans [8]) | MIC (Candida albicans [9]) | MIC (Staphylococcus aureus [10]) | MIC (Candida albicans [12]) | MIC (Pseudomonas aeruginosa) | MIC (Candida albicans [13]) | MIC (Raoultella planticola) | MIC (Candida albicans [14]) | MIC (Escherichia coli) | MIC (Candida albicans [16]) | MIC (Candida albicans [17])

CCCCCCC(C/C=C\CCCCCCCC(=O)OC)NC(=O)[C@@H](N)C(C)C (some centres undefined)
> 125 µg/mL: MIC (Staphylococcus aureus [1]) | MIC (Candida albicans [3]) | MIC (Bacillus subtilis [4]) | MIC (Micrococcus luteus [5]) | MIC (Candida albicans [7]) | MIC (Candida albicans [8]) | MIC (Candida albicans [9]) | MIC (Staphylococcus aureus [10]) | MIC (Candida albicans [12]) | MIC (Pseudomonas aeruginosa) | MIC (Candida albicans [13]) | MIC (Raoultella planticola) | MIC (Candida albicans [14]) | MIC (Escherichia coli) | MIC (Candida albicans [16]) | MIC (Candida albicans [17])

Source: ChEMBL document CHEMBL3865846, “Synthesis and biological evaluation of ricinoleic acid-based lipoamino acid derivatives” (Bioorg Med Chem Lett, 2016)
